In paper PMC8750417, “Intracellular Amplifiers of Reactive Oxygen Species Affecting Mitochondria as Radiosensitizers” (Cancers, 2021):

Legend:
[1] = Prodrug-induced generation of ROS in cell free settings (DCFH/H2O2); conditions: for ROS Release Efficacy: relative acceleration of the rate of DCFH fluorescence increase with H2O2, pH 7.4, FeSO4 = 1.0
Excerpt: As previously reported, the NAAF-prodrugs react with ROS like H2O2, first leading to the cleavage of the B-C-bond with the formation of the phenol derivatives (product 2c-1, Figure S49, SI). The latter compounds exist in equilibrium with the corresponding phenolates. The phenolates undergo the spontaneous 1,6-elimination of para-quinone methide (QM) followed by the release of CO2 with the formation of the N-alkylaminoferrocene NAAF drugs (product 2c-2, Figure S46, SI). By using electrospray ionization mass spectrometry (ESI–MS), we confirmed for one representative prodrug 2c that it reacts with H2O2 in cell free settings according to this common mechanism (ESI-MS, Figures S46–S48, SI). The NAAF is further oxidized by H2O2 or molecular oxygen with the generation of drug NAAF^+ and highly toxic HO• or/and O2^•−. Finally, the NAAF^+ is reduced by glutathione (GSH), thereby closing the catalytic cycle, in which the NAAF acts as a catalyst. We evaluated the formation of HO• or/and O2^•− by using 2′,7′-dichlorodihydrofluorescein (DCFH) as a probe (Table 1, Figure S49, SI). This probe is oxidized to the fluorescent product 2′,7′-dichlorofluorescein (DCF) in the presence of HO• or/and O2^•−. […] The lower activity of 2c and 2d correlates with their higher lipophilicity and their correspondingly higher propensity to form aggregates in aqueous solution (Figure S45, SI).
Prodrug-induced generation of ROS in cell free settings
2',7'-Dichlorodihydrofluorescein diacetate (DCFH-DA, 4.9 mg) was dissolved in DMF (100 μL) and mixed with aqueous NaOH (0.1 M, 900 μL). The resulting mixture was incubated for 30 min at 22 °C in the dark to obtain a stock solution of 2',7'-dichlorodihydrofluorescein (DCFH, 10 mM). Next, DCFH (1 µL ) was added to the solution containing MOPS buf fer (100 mM, pH 7.4), N,N,N'N' -e thylenediaminetetraacetic acid (EDTA , 10 mM) and glutathione (GSH , 5 mM) (1 mL, final concentration of DCFH 10 μM). The reaction mixture was heated to 37 °C and H2O2 (1 µL, final concentration 10 mM) was added. The reaction was monitored by fluorescence spectroscopy: λex = 501 nm, λem = 523 nm. After around 5 min, prodrugs (1 mM in DMF, 10 μL) or positive control FeSO4 (1 mM in water, 10 μL) were added, and the fluorescence monitoring was continued until the fluorescence signal growth was stalled after approximately 100 to 300 min. A representative kinetics of ROS […]
The data are presented in Table 1 as relative acceleration of the rate of the fluorescence increase, where the rate of the fluorescence increase obtained in the presence of positive control FeSO4 was set […]
y = a time + b (a = (dF/dt) , min-1)
Figure S49. Increase of the fluorescence intensity (λex = 501 nm, λem = 523 nm) upon oxidation of DCFH by H2O2 in the presence of FeSO4. Experimental details are provided in the description above. The time point of the FeSO4 addition is indicated with a black […]
(also on this page, place not known: ° C µL) buffer N,N,N'N'-ethylenediaminetetraacetic (EDTA, (GSH, ° C FeSO 4 (λ ex λ em Fluorescence (a.u.) (dF/dt)0, min -1 Addition of)
(1 picture or pasted object on this page, not shown here)

SAS and FaDu cells = experiment: Semi-quantitative radiosensitization grade over SAS and FaDu; assay type: cell-based, human; set-up: key: no radiosensitization (“-”); weak effect or effect in one cell line only (“+/−”); clear/strong (“+”) radiosensitization; conditions: clonogenic survival with irradiation
Protocol: defined low density (150-300 cells in 1 ml per well). After 8 h of incubation to allow cell adherence, 50% of the supernatant was exchanged by media containing the respective prodrugs at 2x concentration and exposed for 48 h. Treatment was then terminated by medium removal, and cells were allowed to grow for a period of ≥5-6 cell divisions estimated from the cell line-specific doubling times of the respective untreated controls (~7 days for SAS and ~10 days for FaDu cells). Control cells were always handled in parallel to the treated cells and thus exposed to the corresponding DMSO concentration(s). After the defined growth intervals, cells were fixed, stained and colonies of >50 cells were manually counted at low magnification to calculate plating efficiencies as the number of counted colonies relative to the number of seeded cells. Drug effect on clonogenic survival was then estimated by normalizing the colony formation of control cells to 1 (Table S9).
The colony formation assay was also applied for monitoring radioresponse. Here, increasing numbers of single cells relative to the irradiation dose (0-10 Gy) were seeded into 6-well plates (150-2400 SAS cells/well and 300-4800 FaDu cells/well).
Cells were treated with the drugs upon attachment as described. The total period of drug exposure was 48 h, and single dose irradiation was carried out 24 h after addition of the compounds. X-ray was performed at room temperature with a YxlonY.TU 320 system (Yxlon.international, 200 kV, 0.5 mm Cu filter) and a dose rate of ~1.3 Gy/min. Drug exposure was terminated by medium exchange and cultures were then incubated for the additional time period highlighted earlier.
Plating efficiencies were assessed and normalized for each treatment arm to the respective unirradiated control. Data were reproduced (N=3 each with n=3 wells per experiment and treatment condition). The relative clonogenic cell survival (= survival fraction, SF) was then plotted as function of the irradiation dose, and clonogenic survival curves were fitted employing the linear quadratic model as described

| SMILES | ROS Release Efficacy [1] | Radiosensitization (SAS and FaDu cells; 25 µM) | also measured |
| --- | --- | --- | --- |
| CC1(C)OB(c2ccc(COC(=O)N(Cc3cn(Cc4ccc(Cn5cc(Cc6ccccc6)nn5)cc4)nn3)[c-]3cccc3)cc2)OC1(C)C.[Fe+2].c1cc[cH-]c1 [2c] | 0.35 ± 0.17 | + | ROS-generating activity, fold lower than that of 2a and 2b ([1]; cell free DCFH assay): ~ 2 fold; Radiosensitization (SAS and FaDu cells; 10 µM): +/− |
| CC1(C)OB(c2ccc(COC(=O)N(Cc3cccc(CN4CCCCC4)c3)[c-]3cccc3)cc2)OC1(C)C.[Fe+2].c1cc[cH-]c1 [5b] |  |  | Radiosensitization (SAS and FaDu cells; 1 µM): +; Radiosensitization (SAS and FaDu cells; 2.5 µM): + |
| CCOC(=O)CCCCCn1cc(CN(C(=O)OCc2ccc(B3OC(C)(C)C(C)(C)O3)cc2)[c-]2cccc2)nn1.[Fe+2].c1cc[cH-]c1 [compound 1] | 0.99 ± 0.16 |  |  |
| [Fe+2].c1cc[cH-]c1.c1cc[cH-]c1 [compound 6, ferrocene] |  | - |  |
